These results are taken from BindingDB's records for doi:10.7270/Q2H993J6 (Pcmd, 2008).

Chain of Coagulation factor XI (P03951 19-387 limits assumed): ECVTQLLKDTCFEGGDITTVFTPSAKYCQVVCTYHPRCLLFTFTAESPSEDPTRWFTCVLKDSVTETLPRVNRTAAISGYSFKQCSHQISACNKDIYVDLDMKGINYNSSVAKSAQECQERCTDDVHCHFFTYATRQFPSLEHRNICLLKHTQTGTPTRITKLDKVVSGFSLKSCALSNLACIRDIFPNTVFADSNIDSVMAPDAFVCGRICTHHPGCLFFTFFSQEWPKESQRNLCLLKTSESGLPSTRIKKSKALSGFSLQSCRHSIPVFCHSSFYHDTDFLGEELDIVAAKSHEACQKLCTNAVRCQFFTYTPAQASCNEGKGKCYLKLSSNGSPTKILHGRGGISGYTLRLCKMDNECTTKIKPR
Chain of Coagulation factor XI (P03951 388-625 limits assumed): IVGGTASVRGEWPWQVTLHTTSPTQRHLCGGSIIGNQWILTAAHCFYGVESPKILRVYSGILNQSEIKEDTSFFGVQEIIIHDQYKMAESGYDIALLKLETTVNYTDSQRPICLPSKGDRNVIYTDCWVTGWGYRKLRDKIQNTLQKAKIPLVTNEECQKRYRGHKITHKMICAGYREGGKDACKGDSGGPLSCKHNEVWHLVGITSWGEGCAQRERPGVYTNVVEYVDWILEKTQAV

The experiment concerns the target Coagulation factor XI (Homo sapiens, UniProt P03951). The experiment in a line: FXIa inhibitor IC50 values, dose response, biochemical, hits from 1536-well screen (AID 846). To be noted: pH 7.4; 23 °C.
In the case of `Cn1nnc(CC[N+](C)(C)C)n1` [SMR000427769], the IC50 – broadly, the midpoint of a concentration-inhibition curve – is above 50 µM.

`O=C(Nc1nc(-c2cccs2)cs1)c1ccc(Cl)cc1` [4-chloro-N-(4-thiophen-2-yl-2-thiazolyl)benzamide] yielded an IC50 of 17.3 µM.

Take `Cc1cccc(OCC(=O)NN=Cc2ccccc2C(=O)O)c1` [SMR000372421]: the IC50 is above 50 µM.

Turning to `CC(=O)c1ccc(NC(=O)C(Cl)=Cc2ccccc2)cc1` [(Z)-N-(4-acetylphenyl)-2-chloro-3-phenyl-2-propenamide], the IC50 is above 50 µM.

`Clc1ccc(-c2csc(N3CCOCC3)n2)cc1` [4-[4-(4-chlorophenyl)-2-thiazolyl]morpholine] displayed an IC50 above 50 µM.

The compound `NS(=O)(=O)c1ccc(Cl)cc1[N+](=O)[O-]` registered an IC50 above 50 µM.

The compound `CC(C)c1csc(CN2CCCC(CCC(=O)NCc3ccccc3F)C2)n1` (stereo not given) [N-[(2-fluorophenyl)methyl]-3-[1-[(4-propan-2-yl-1,3-thiazol-2-yl)methyl]piperidin-3-yl]propanamide] came in with a concentration for half-maximal inhibition (IC50) above 50 µM.

In turn, `CC1(C)C2CCC(C2)C1(C)/N=C1\OC(CCl)CS1` (stereo not given) [MLS001012164] gave an IC50 above 50 µM.

For the compound `COc1cc(C(=O)OCC(C)=O)ccc1OCc1c(C)noc1C` [SMR000377658], the IC50 was above 50 µM.

Compound `CN(Cc1ccccc1)c1nc2c(c(=O)[nH]c(=O)n2C)n1CCCSc1ncccn1` [3-methyl-8-[methyl-(phenylmethyl)amino]-7-(3-pyrimidin-2-ylsulfanylpropyl)purine-2,6-dione] returned an IC50 above 50 µM.

For `COc1ccc(C=NNC(=O)CCn2cnc3ccccc32)cc1` [MLS000769034], the IC50 was above 50 µM.

`CC(Cc1ccccc1)=NNC(=O)CNC(=O)c1ccccc1Cl` [2-chloro-N-[2-oxo-2-[2-(1-phenylpropan-2-ylidene)hydrazinyl]ethyl]benzamide] gave an IC50 above 50 µM.

`Cc1nc2cc(NC(=O)Nc3cccc(F)c3)ccc2n1C` [MLS000708492] gave an IC50 above 50 µM.

The compound `NS(=O)(=O)c1ccc(CCNC(=O)Cc2ccccc2[N+](=O)[O-])cc1` [MLS000689902] displayed an IC50 above 50 µM.

Compound `COc1cc(C2SCC(=O)N2c2c(C)n(C)n(-c3ccccc3)c2=O)ccc1O` (stereo not given) [SMR000414946] yielded a concentration for half-maximal inhibition (IC50) above 50 µM.

As to `CC(C=NNC(=O)c1cc(-c2cccn2C)n[nH]1)=Cc1ccccc1`, the IC50 was above 50 µM.

As to `Cc1ccc(C(=O)NNC(=S)NC(=O)COc2ccccc2)cc1` [N-[[(4-methylbenzoyl)amino]carbamothioyl]-2-phenoxyacetamide], half-maximal inhibition (IC50) was put at 3 µM.

`O=C(Nc1ccc2c(c1)oc1ccccc12)N1CCOCC1` [Morpholine-4-carboxylic acid dibenzofuran-3-ylamide] displayed an IC50 above 50 µM.

The compound `COc1cc([N+](=O)[O-])cc2sc(NC(C)=O)nc12` [MLS000708454] gave an IC50 above 50 µM.

Turning to `CCCN(CCC)S(=O)(=O)c1ccc(C(=O)NNc2nc(-c3ccccc3)c3cc(Br)ccc3n2)cc1` [4-[[(6-bromo-4-phenylquinazolin-2-yl)amino]carbamoyl]-N,N-dipropylbenzenesulfonamide], the IC50 was above 50 µM.

Take `CCN(CC)CCNC(=O)c1ccc(NC(=O)c2cccc(S(=O)(=O)Nc3ccc(C)cc3)c2)cc1` [potassium;[3-[[4-[2-(diethylamino)ethylcarbamoyl]phenyl]carbamoyl]phenyl]sulfonyl-(4-methylphenyl)azanide]: the IC50 is above 50 µM.

`Cc1cc(F)ccc1S(=O)(=O)Nc1ncnc2sc3c(c12)CCC3` [N-(7,8-dihydro-6H-cyclopenta[4,5]thieno[1,2-c]pyrimidin-1-yl)-4-fluoro-2-methylbenzenesulfonamide] displayed an IC50 above 50 µM.

`CC/C=C/C(=O)N1CC2(CC(c3cccc(NC(=O)CCCCC)c3)=NO2)C[C@H]1C(N)=O` (stereo partly drawn) [(8S)-3-[3-(hexanoylamino)phenyl]-7-[(E)-pent-2-enoyl]-1-oxa-2,7-diazaspiro[4.4]non-2-ene-8-carboxamide] came in with a 50% inhibitory concentration (IC50) of 9.23 µM.

Compound `CCc1cc(-c2n[nH]cc2-c2nc3ccccc3n2C)c(O)cc1O` [4-Ethyl-6-[4-(1-methyl-1H-benzoimidazol-2-yl)-1H-pyrazol-3-yl]-benzene-1,3-diol] displayed an IC50 above 50 µM.

`COc1ccc2c(c1)-c1nc(NC(=O)c3cccs3)sc1CC2` [N-(8-methoxy-4,5-dihydrobenzo[e][1,3]benzothiazol-2-yl)-2-thiophenecarboxamide] had an IC50 of 41.3 µM.

For `O=C(O)c1ccc(/C=C2\SC(=S)N(Nc3ccccc3)C2=O)cc1` [4-[4-Oxo-3-phenylamino-2-thioxo-thiazolidin-(5Z)-ylidenemethyl]-benzoic acid], the IC50 was above 50 µM.

The compound `O=C1c2ccccc2C(=O)N1OS(=O)(=O)c1ccccc1` [Benzenesulfonic acid 1,3-dioxo-1,3-dihydro-isoindol-2-yl ester] registered a half-maximal inhibitory concentration (IC50) of 1.4 µM.

As for `COc1ccc(CN(Cc2ccc(OC)cc2)C(=O)c2cccs2)cc1` [MLS000860276], the IC50 is above 50 µM.

On to `O=C(NNC1=NCCCCC1)Nc1cccc(Cl)c1`, for which the IC50 was above 50 µM.

`O=C(Nc1ccc(Cl)cc1)Nc1ccccc1C(=O)NCc1ccco1` [2-[(4-chlorophenyl)carbamoylamino]-N-(furan-2-ylmethyl)benzamide] had an IC50 above 50 µM.

In turn, `COc1ccc(S(=O)(=O)NCc2c(-c3ccccc3)noc2C)c(OC)c1` had an IC50 above 50 µM.

As to `O=C(O)c1ccc(N=C(NS(=O)(=O)c2ccc(Cl)cc2)c2ccccc2)cc1` [4-({[(E)-4-Chloro-benzenesulfonylimino]-phenyl-methyl}-amino)-benzoic acid], the IC50 is above 50 µM.

Consider `COc1ccc([N+](=O)[O-])cc1NC(=O)CC1S/C(=N\c2cccc(C)c2C)N(N=Cc2cccc(OC)c2OC)C1=O` (stereo not given), for which the IC50 was above 50 µM.

Compound `COc1ccc(C(=O)NN=Cc2cc3ccccc3[nH]c2=O)cc1` registered an IC50 above 50 µM.

In the case of `Cc1nc2ccccc2c(=O)n1NC(=O)c1cc(Br)ccc1Cl`, the IC50 is above 50 µM.

`Cc1ccc(NS(=O)(=O)c2ccc(C(=O)OCC(=O)Nc3cc(C)on3)cc2)cc1` [[2-[(5-methyl-1,2-oxazol-3-yl)amino]-2-oxoethyl] 4-[(4-methylphenyl)sulfamoyl]benzoate] gave an IC50 above 50 µM.

For `O=C(NCc1ccco1)C1CC(c2ccccc2C(F)(F)F)=NO1` (stereo not given) [N-(2-furanylmethyl)-3-[2-(trifluoromethyl)phenyl]-4,5-dihydroisoxazole-5-carboxamide], the IC50 was above 50 µM.

For `CCc1ccc(NC(=O)CCn2cccc2)cc1` [SMR000130982], the IC50 was above 50 µM.

Compound `Oc1cc(N2CCC(c3nc4ccccc4o3)CC2)c(O)n1-c1ccc(Cl)c(C(F)(F)F)c1` [3-[4-(1,3-benzoxazol-2-yl)piperidin-1-yl]-1-[4-chloranyl-3-(trifluoromethyl)phenyl]pyrrolidine-2,5-dione] showed an IC50 above 50 µM.

With `O=C(Nc1ccc(Cl)cc1)Nc1nc(-c2ccccc2O)cs1` [1-(4-chlorophenyl)-3-[4-(2-hydroxyphenyl)-1,3-thiazol-2-yl]urea], the IC50 is above 50 µM.

On to `O=C1OCC2OC(O)C(O)C(O)C2OC(=O)c2cc(O)c(O)c(O)c2-c2c(O)c(O)c3oc(=O)c4c(c(O)c(O)c5oc(=O)c2c3c54)-c2c1cc(O)c(O)c2O` (stereo not given) [SMR000445568], for which inhibition was half-maximal at 6.08 µM (IC50).

In turn, `CCc1cc2c(SCC(=O)N(C)C3CCS(=O)(=O)C3)ncnc2s1` (stereo not given) [N-(1,1-dioxothiolan-3-yl)-2-(6-ethylthieno[2,3-d]pyrimidin-4-yl)sulfanyl-N-methylacetamide] registered an IC50 above 50 µM.

The compound `COc1ccccc1NS(=O)(=O)c1ccc(O)c(C(=O)OCC(=O)c2ccc(Cl)cc2Cl)c1` [SMR000369457] had an IC50 above 50 µM.

Regarding `CC(C)(C)C(=O)Nc1ccc(C(=O)NN=Cc2ccccc2OC(=O)c2ccccc2)cc1` [SMR000174811], the IC50 is above 50 µM.

The compound `CCOC(=O)c1sc(NC(=O)CSC(=S)N2CCN(C)CC2)nc1C` [MLS000332299] came in with an IC50 above 50 µM.

`N#Cc1ccsc1NC(=O)CN(Cc1ccccc1)Cc1ccccc1` [2-[bis(phenylmethyl)amino]-N-(3-cyano-2-thiophenyl)acetamide] showed an IC50 above 50 µM.

For `CC1=CCC2C(=O)N(C(C)c3ccccc3)C(=O)C2C1` (stereo not given) [5-methyl-2-(1-phenylethyl)-3a,4,7,7a-tetrahydro-1H-isoindole-1,3(2H)-dione], the IC50 is above 50 µM.

The compound `Cc1ccc(C(=O)n2nc(-c3cccnc3)nc2N)cc1` [1-(4-methylbenzoyl)-3-(3-pyridinyl)-1H-1,2,4-triazol-5-amine] showed an IC50 above 50 µM.

For `CCn1c(C)nc2cc(C(=O)NN=C(C)c3ccc(OC)cc3O)ccc21` [1-ethyl-N'-[(1E)-1-(4-methoxy-6-oxidanylidene-cyclohexa-2,4-dien-1-ylidene)ethyl]-2-methyl-benzimidazole-5-carbohydrazide], the IC50 is above 50 µM.

`CCn1nc(CC(=O)O)c2ccccc2c1=O` [2-(3-ethyl-4-oxidanylidene-phthalazin-1-yl)ethanoic acid] yielded an IC50 above 50 µM.

In turn, `O=C(Cn1[nH]c(=O)c2ccccc2c1=O)Nc1cccc(S(=O)(=O)N2CCCCCC2)c1` [SMR000369234] returned an IC50 above 50 µM.

For the compound `COc1cc(C(=O)NCC(=O)OCn2nnc3ccccc3c2=O)cc(OC)c1OC` [MLS001007360], the IC50 is above 50 µM.

`C=CCNC(=S)N[N-][CH+]c1ccc(C)c([N+](=O)[O-])c1` [SMR000228955]: the IC50 was above 50 µM.

In turn, `O=C(Cn1c(-c2ccccn2)nc2ccccc21)NN=Cc1cccnc1` [2-(2-pyridin-2-ylbenzimidazol-1-yl)-N-(pyridin-3-ylmethylideneamino)acetamide] displayed an IC50 above 50 µM.

As for `NC[C@H](O)c1ccc(O)cc1` [SMR000058358], the IC50 is above 50 µM.

`CCOC(=O)COc1cc(O)c2c(=O)cc(-c3ccccc3)oc2c1` [2-[(5-hydroxy-4-oxo-2-phenyl-1-benzopyran-7-yl)oxy]acetic acid ethyl ester]: the IC50 is above 50 µM.

In the case of `O=C1OC(Nc2ccc(F)c([N+](=O)[O-])c2)c2ccccc21` (stereo not given) [SMR000434389], the IC50 is above 50 µM.

In turn, `CCCCCCCc1c(O)nc(SCCN(C)C)[nH]c1=O` [SMR000414668] returned an IC50 of 14 µM.

Turning to `C=CCNc1nc(NC(C)(C)CO)nc(OC)n1` [SMR000117555], the IC50 was above 50 µM.

`CC(C)N(Cc1ccccc1)C(S)=NC1CCCCC1` [MLS001033857] returned an IC50 above 50 µM.
